Results as given in US8969407B2, “Administration of coumarin, butylated hydroxyanisole and ethoxyquine for the treatment of canities” (L'Oreal, priority 2006, dated 2015).

System: normal human melanocytes (NHM)
Assay: Measurement of reactive oxygen species (ROS) generated by an H2O2 stress in cultured normal human melanocytes
Format: cell-based
Settings: NHM pretreated 12 h/18 h at 37° C. with compound; 250 μM H2O2; fluorescence after 15 minutes; FIG. 1
Procedure: 1-A-1. Protocol for Measuring the Reactive Oxygen Species (ROS) Generated by an H2O2 Stress in Cultured Normal Human Melanocytes (NHM): The normal human melanocytes (NHMs) were inoculated at DO at the density of 4×10^4 cells/cm^2. At D1, the culture medium was replaced with the 10 μM solution of 6-carboxy-2',7'-dichlorodihydrofluorescein diacetate, di[acetoxymethyl ester] in PBS (H2DCFDA, C2938, Molecular Probes). After 20 minutes, the H2DCFDA solution was replaced with the culture medium. The NHMs were left for 30 minutes before adding the H2O2 solution (250 μM). The fluorescence was measured after 15 minutes in a fluoroscan (excitation: 485 nm, emission: 538 nm). The compounds studied were used depending on their properties (concentration, preincubation time). N-Acetylcysteine ([…]-Sigma) was used as a reference molecule. The melanocytes were pretreated, 12 h/18 h at 37° C., with the compound studied in the culture medium, before being brought into contact for 20 minutes with H2DCFDA (10 μM in PBS). […] The fluorescence was measured after 15 minutes in a fluoroscan (excitation: 485 nm, emission: 538 nm). The results represent the crude fluorescence data, from which the autofluorescence values of “blank” cells, expressed in fluorescence units (fu), obtained during a representative experiment, have been deducted.

## CCOc1ccc2c(c1)C(C)=CC(C)(C)N2 [ethoxyquine, 6-ethoxy-2,2,4-trimethyl-1H-quinoline]
  ROS induced by H2O2 (H2DCFDA fluorescence): decrease of the reactive oxygen species
